Source: patent US20060069132A1, “Azolecarboxamide herbicides” (priority 2004, published 2006)
Like-named read-outs stand apart in the source and are kept apart here.

Legend:
large crabgrass [1] = assay: Test C pre-/postemergence herbicide test; type: in vivo, Digitaria sanguinalis; details: for Crabgrass, Large plant response rating: 500 g ai/ha
How it was run: (§1)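 Preemergence: seeds planted and treated with compound in non-phytotoxic solvent with surfactant; postemergence: plants at 2 to 18 cm (1- to 4-leaf stage) sprayed likewise. Kept in greenhouse 12 to 14 days, then visually rated against controls, 0 (no effect) to 100 (complete control).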

yellow nutsedge = assay: Test C pre-/postemergence herbicide test; type: in vivo, Cyperus esculentus; details: for Nutsedge, Yellow plant response rating: 500 g ai/ha
How it was run: as §1

johnsongrass = assay: Test C pre-/postemergence herbicide test; type: in vivo, Sorghum halepense; details: for Johnsongrass plant response rating: Preemergence, 500 g ai/ha
How it was run: as §1

cocklebur = assay: Test C pre-/postemergence herbicide test; type: in vivo, Xanthium strumarium
How it was run: as §1

morningglory = assay: Test C pre-/postemergence herbicide test; type: in vivo, Ipomoea coccinea; parameters: key to Plant response rating, Morningglory: 0 = no effect, 100 = complete control; details: for Morningglory plant response rating: 500 g ai/ha
How it was run: as §1

eastern black nightshade = assay: Test C pre-/postemergence herbicide test; type: in vivo, Solanum ptycanthum; details: for Nightshade plant response rating: Preemergence, 500 g ai/ha, scale 0 to 100, 0 no effect, 100 complete control
How it was run: as §1

Surinam grass = assay: Test B pre-/postemergence herbicide test; type: in vivo, Urochloa decumbens; details: for pest or weed control at 125 g/ha / pest or weed control at 500 g/ha: Urochloa decumbens
How it was run: (§2)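 Response was scored visually 13 to 15 days after treatment against untreated greenhouse controls, 0 meaning no effect and 100 complete control. Formulations (solvent mixture plus surfactant) went onto soil after planting, onto foliage of 1- to 4-leaf plants, and onto 2-leaf plants in a flooded paddy set including rice and barnyardgrass.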

large crabgrass [2] = assay: Test B pre-/postemergence herbicide test; type: in vivo, Digitaria sanguinalis; details: for pest or weed control at 125 g/ha / pest or weed control at 500 g/ha: Digitaria sanguinalis
How it was run: as §2

barnyardgrass = assay: Test C flooded paddy test; type: in vivo, Echinochloa crus-galli
How it was run: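 Scoring by eye, 12–14 days post-treatment, greenhouse-held plants vs. controls; 0 no effect, 100 complete control. Sprayed at 1–4 leaves (2–18 cm); paddy barnyardgrass at 2 leaves, flooded.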

rice = assay: Test B pre-/postemergence herbicide test; type: in vivo, Oryza sativa
How it was run: as §2

[3] = 125 g ai/ha, scale 0 (no effect) to 100 (complete control), visual, 12 to 14 days, preemergence
[4] = 250 g ai/ha, scale 0 to 100 (0 no effect, 100 complete control), visual, 12 to 14 days, preemergence
[5] = Postemergence, 250 g ai/ha, scale 0 to 100, 0 no effect, 100 complete control
[6] = Preemergence, scale 0 to 100, 0 no effect, 100 complete control
[7] = postemergence, 125 g ai/ha, scale 0 to 100
[8] = postemergence, 62 g ai/ha, scale 0 to 100
[9] = scale 0 to 100, 0 no effect, 100 complete control
[10] = 500 g ai/ha, visual rating 0-100, 0 no effect, 100 complete control, preemergence
[11] = postemergence, 125 g ai/ha, visual rating, scale 0 (no effect) to 100 (complete control)
[12] = postemergence, 500 g ai/ha, visual rating, scale 0 (no effect) to 100 (complete control)
[13] = preemergence, 125 g ai/ha, 0 to 100 scale, 0 is no effect, 100 is complete control

CCNC(=O)c1cccc(NC(=O)c2cc(C(C)(C)C)nn2CC)n1 [Compound 144]
Plant response rating (0 = no effect, 100 = complete control), Crabgrass, Large (large crabgrass [1]; 62 g ai/ha, preemergence): 50 | Plant response rating, Crabgrass, Large (large crabgrass [1]; [3]): 70 | Plant response rating, Crabgrass, Large (large crabgrass [1]; [4]): 85 | Crabgrass, Large plant response rating (large crabgrass [1]; Postemergence, scale 0 to 100): 100 | Plant response rating, Crabgrass, Large (large crabgrass [1]; [5]): 100 | Crabgrass, Large plant response rating (large crabgrass [1]; [6]): 100 | Plant response rating, Crabgrass, Large (large crabgrass [1]; [7]): 10 | Plant response rating, Crabgrass, Large (large crabgrass [1]; [8]): 0 | Plant response rating (0 = no effect, 100 = complete control), Nutsedge, Yellow (yellow nutsedge; 62 g ai/ha, preemergence): 0 | Plant response rating, Nutsedge, Yellow (yellow nutsedge; [3]): 0 | Nutsedge, Yellow plant response rating (yellow nutsedge; Postemergence, scale 0 to 100): 0 | Plant response rating, Nutsedge, Yellow (yellow nutsedge; [5]): 0 | Nutsedge, Yellow plant response rating (yellow nutsedge; [6]): 40 | Plant response rating, Nutsedge, Yellow (yellow nutsedge; [7]): 0 | Plant response rating, Nutsedge, Yellow (yellow nutsedge; [8]): 0 | Plant response rating (0 = no effect, 100 = complete control), Johnsongrass (johnsongrass; 62 g ai/ha, preemergence): 0 | Plant response rating, Johnsongrass (johnsongrass; [3]): 0 | Plant response rating, Johnsongrass (johnsongrass; [5]): 10 | Johnsongrass plant response rating (johnsongrass; [9]): 90 | Plant response rating, Johnsongrass (johnsongrass; [7]): 0 | Plant response rating, Johnsongrass (johnsongrass; [8]): 0 | Plant response rating (0 = no effect, 100 = complete control), Cocklebur (cocklebur; 62 g ai/ha, preemergence): 0 | Plant response rating, Cocklebur (cocklebur; [3]): 0 | Plant response rating, Cocklebur (cocklebur; [4]): 0 | Cocklebur plant response rating (cocklebur; Postemergence, 500 g ai/ha, scale 0 to 100): 70 | Plant response rating, Cocklebur (cocklebur; [5]): 70 | Cocklebur plant response rating (cocklebur; Preemergence, 500 g ai/ha, scale 0 to 100, 0 no effect, 100 complete control): 80 | Plant response rating, Cocklebur (cocklebur; [7]): 40 | Plant response rating, Cocklebur (cocklebur; [8]): 10 | Plant response rating (0 = no effect, 100 = complete control), Morningglory (morningglory; 62 g ai/ha, preemergence): 0 | Plant response rating, Morningglory (morningglory; [3]): 30 | Morningglory plant response rating (morningglory; Postemergence, scale 0 to 100): 80 | Plant response rating, Morningglory (morningglory; [5]): 20 | Morningglory plant response rating (morningglory; [6]): 90 | Plant response rating, Morningglory (morningglory; [7]): 0 | Plant response rating, Morningglory (morningglory; [8]): 0 | Plant response rating (0 = no effect, 100 = complete control), Nightshade (eastern black nightshade; 62 g ai/ha, preemergence): 90 | Plant response rating, Nightshade (eastern black nightshade; [3]): 100 | Nightshade plant response rating (eastern black nightshade): 100 | Plant response rating, Surinam Grass (Surinam grass; [10]): 100 | Surinam Grass plant response rating (Surinam grass; [11]): 60 | Surinam Grass plant response rating (Surinam grass; [12]): 90 | Plant response rating, Surinam Grass (Surinam grass; [13]): 60 | Plant response rating, Crabgrass, Large (large crabgrass [2]; [10]): 100 | Crabgrass, Large plant response rating (large crabgrass [2]; [11]): 30 | Crabgrass, Large plant response rating (large crabgrass [2]; [12]): 100 | Plant response rating, Crabgrass, Large (large crabgrass [2]; [13]): 80 | Barnyardgrass plant response rating (barnyardgrass; 62 g ai/ha, scale 0 to 100 (0 no effect, 100 complete control)): 20 | Barnyardgrass plant response rating (barnyardgrass; 125 g ai/ha, scale of 0 to 100, 0 is no effect, 100 is complete control): 20 | Barnyardgrass plant response rating (barnyardgrass; 250 g ai/ha, scale of 0 to 100, 0 is no effect, 100 is complete control): 50 | Plant response rating, Barnyardgrass (barnyardgrass; 500 g ai/ha, visual rating after 12 to 14 days, scale 0 to 100 (0 no effect, 100 complete control)): 60 | Plant response rating, Rice (rice; [10]): 30 | Plant response rating, Rice (rice; [13]): 20

CCn1nc(C(C)(C)C)cc1C(=O)Nc1cc(C(=O)N(C)C)ccn1 [Compound 156, 2-[[[3-(1,1-dimethylethyl)-1-ethyl-1H-pyrazol-5-yl]carbonyl]amino]-N,N-dimethyl-4-pyridinecarboxamide]
pest or weed control at 62 g/ha (large crabgrass [1]; Digitaria sanguinalis, pre-emergence, 312 h, 62 g ai/ha, preemergence, scale 0 to 100, read-out: Plant response rating, Crabgrass, Large): 60% | pest or weed control at 125 g/ha (large crabgrass [1]; Digitaria sanguinalis, pre-emergence, 312 h, 125 g ai/ha, scale 0 (no effect) to 100 (complete control), visual, 12 to 14 days, read-out: Plant response rating, Crabgrass, Large): 85% | pest or weed control at 250 g/ha (large crabgrass [1]; Digitaria sanguinalis, pre-emergence, 312 h, 250 g ai/ha, scale 0 to 100 (0 no effect, 100 complete control), visual, 12 to 14 days, read-out: Plant response rating, Crabgrass, Large): 90% | Crabgrass, Large plant response rating (large crabgrass [1]; [6]): 100 | pest or weed control at 62 g/ha (yellow nutsedge; Cyperus, pre-emergence, 62 g ai/ha, preemergence, scale 0 to 100, read-out: Plant response rating, Nutsedge, Yellow): 35% | pest or weed control at 125 g/ha (yellow nutsedge; Cyperus, pre-emergence, 125 g ai/ha, scale 0 (no effect) to 100 (complete control), visual, 12 to 14 days, read-out: Plant response rating, Nutsedge, Yellow): 60% | Nutsedge, Yellow plant response rating (yellow nutsedge; [6]): 85 | Johnsongrass plant response rating (johnsongrass; [9]): 100 | pest or weed control at 62 g/ha (johnsongrass; Sorghum halepense, pre-emergence, 62 g ai/ha, preemergence, scale 0 to 100, read-out: Plant response rating, Johnsongrass): 80% | pest or weed control at 125 g/ha (johnsongrass; Sorghum halepense, pre-emergence, 125 g ai/ha, scale 0 (no effect) to 100 (complete control), visual, 12 to 14 days, read-out: Plant response rating, Johnsongrass): 85% | pest or weed control at 62 g/ha (cocklebur; Xanthium strumarium, pre-emergence, 312 h, 62 g ai/ha, preemergence, scale 0 to 100, read-out: Plant response rating, Cocklebur): 63% | pest or weed control at 125 g/ha (cocklebur; Xanthium strumarium, pre-emergence, 312 h, 125 g ai/ha, scale 0 (no effect) to 100 (complete control), visual, 12 to 14 days, read-out: Plant response rating, Cocklebur): 98% | pest or weed control at 250 g/ha (cocklebur; Xanthium strumarium, pre-emergence, 312 h, 250 g ai/ha, scale 0 to 100 (0 no effect, 100 complete control), visual, 12 to 14 days, read-out: Plant response rating, Cocklebur): 100% | pest or weed control at 500 g/ha (cocklebur; Xanthium strumarium, pre-emergence, 312 h, Preemergence, 500 g ai/ha, scale 0 to 100, 0 no effect, 100 complete control, read-out: Cocklebur plant response rating): 100% | pest or weed control at 62 g/ha (morningglory; Ipomoea, pre-emergence, 62 g ai/ha, preemergence, scale 0 to 100, read-out: Plant response rating, Morningglory): 8% | pest or weed control at 125 g/ha (morningglory; Ipomoea, pre-emergence, 125 g ai/ha, scale 0 (no effect) to 100 (complete control), visual, 12 to 14 days, read-out: Plant response rating, Morningglory): 60% | Morningglory plant response rating (morningglory; [6]): 100 | Nightshade plant response rating (eastern black nightshade): 100 | pest or weed control at 62 g/ha (eastern black nightshade; pre-emergence, 62 g ai/ha, preemergence, scale 0 to 100, read-out: Plant response rating, Nightshade): 75% | pest or weed control at 125 g/ha (eastern black nightshade; pre-emergence, 125 g ai/ha, scale 0 (no effect) to 100 (complete control), visual, 12 to 14 days, read-out: Plant response rating, Nightshade): 93% | pest or weed control at 125 g/ha (Surinam grass; post-emergence, postemergence, 125 g ai/ha, visual rating, scale 0 (no effect) to 100 (complete control), read-out: Surinam Grass plant response rating): 10% | pest or weed control at 500 g/ha (Surinam grass; post-emergence, postemergence, 500 g ai/ha, visual rating, scale 0 (no effect) to 100 (complete control), read-out: Surinam Grass plant response rating): 20% | pest or weed control at 500 g/ha (Surinam grass; pre-emergence, 500 g ai/ha, visual rating 0-100, 0 no effect, 100 complete control, read-out: Plant response rating, Surinam Grass): 100% | pest or weed control at 125 g/ha (Surinam grass; pre-emergence, preemergence, 125 g ai/ha, 0 to 100 scale, 0 is no effect, 100 is complete control, read-out: Plant response rating, Surinam Grass): 90% | pest or weed control at 125 g/ha (large crabgrass [2]; post-emergence, postemergence, 125 g ai/ha, visual rating, scale 0 (no effect) to 100 (complete control), read-out: Crabgrass, Large plant response rating): 10% | pest or weed control at 500 g/ha (large crabgrass [2]; post-emergence, postemergence, 500 g ai/ha, visual rating, scale 0 (no effect) to 100 (complete control), read-out: Crabgrass, Large plant response rating): 10% | pest or weed control at 500 g/ha (large crabgrass [2]; pre-emergence, 500 g ai/ha, visual rating 0-100, 0 no effect, 100 complete control, read-out: Plant response rating, Crabgrass, Large): 100% | pest or weed control at 125 g/ha (large crabgrass [2]; pre-emergence, preemergence, 125 g ai/ha, 0 to 100 scale, 0 is no effect, 100 is complete control, read-out: Plant response rating, Crabgrass, Large): 90% | plant injury at 500 g/ha (rice; Oryza sativa, pre-emergence, 336 h, 500 g ai/ha, visual rating 0-100, 0 no effect, 100 complete control, read-out: Plant response rating, Rice): 100% | plant injury at 125 g/ha (rice; Oryza sativa, pre-emergence, 336 h, preemergence, 125 g ai/ha, 0 to 100 scale, 0 is no effect, 100 is complete control, read-out: Plant response rating, Rice): 90%
